The source of these data is patent US8304258B2, “Methods of producing monoclonal antibodies specific for human hepcidin” (DRG International, Inc., priority 2002, dated 2012).

Data set [1] deals with T1, Ferroportin-GFP (Fpn-GFP) (Mus musculus, UniProt Q9JHI9).
T1 construct: expressed in transfected cells; host or cells: EcR293 cells (resulting HEK293-Fpn cells), induced with ponasterone for 24 h
T1 sequence (Q9JHI9 1-570): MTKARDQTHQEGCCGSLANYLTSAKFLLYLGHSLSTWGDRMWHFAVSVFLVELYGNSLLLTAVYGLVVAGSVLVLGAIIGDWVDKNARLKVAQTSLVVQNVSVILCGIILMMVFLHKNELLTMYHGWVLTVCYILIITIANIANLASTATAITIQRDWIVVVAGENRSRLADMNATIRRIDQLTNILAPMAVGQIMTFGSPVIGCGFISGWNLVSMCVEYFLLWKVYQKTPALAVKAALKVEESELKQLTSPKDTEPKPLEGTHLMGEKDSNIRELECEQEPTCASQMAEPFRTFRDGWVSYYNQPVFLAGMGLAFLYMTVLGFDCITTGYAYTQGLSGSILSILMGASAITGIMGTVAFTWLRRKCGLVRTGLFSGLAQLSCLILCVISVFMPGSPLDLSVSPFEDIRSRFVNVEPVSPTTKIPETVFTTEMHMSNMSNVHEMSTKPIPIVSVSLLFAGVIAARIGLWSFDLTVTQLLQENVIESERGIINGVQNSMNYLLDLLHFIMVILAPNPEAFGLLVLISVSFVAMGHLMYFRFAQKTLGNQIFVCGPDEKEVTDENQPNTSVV
Briefly: Fpn-GFP internalization in HEK293-Fpn cells, epi-fluorescence microscopy. The data set is classed as cell-based. An excerpt:
In one embodiment, the antibodies of the instant invention (e.g., the antibodies capable of binding SEQ ID NO:2, SEQ ID NO:3, SEQ ID NO:4, SEQ ID NO:5) may be used to inactivate hepcidin. In one embodiment, EcR293 cells were stably transfected with a plasmid containing an ecdysone-regulated Ferroportin-GFP (Fpn-GFP) construct (Nemeth et al. Science 306:2090-2093, (2004)). In resulting HEK293-Fpn cells bioactive hepcidin binds to ferroportin and specifically induces the internalization of Fpn-GFP. Briefly, Fpn-GFP was induced by ponasterone treatment for 24 h. Cells were then incubated with 0.1 to 0.5 μM purified human hepcidin (from urine) for 6 h and imaged by epi-fluorescence microscopy. […] When hepcidin was absent from the medium, there was no internalization of Fpn-GFP.
cR293 cells were stably transfected with a plasmid containing an ecdysone-regulated Ferroportin-GFP (Fpn-GFP) construct. In resulting HEK293-Fpn cells bioactive hepcidin binds to ferroportin and specifically induces the internalization of Fpn-GFP. Briefly, Fpn-GFP was induced by ponasterone treatment for 24 h. Cells were then incubated with 0.1 to 0.5 μM purified human hepcidin (from urine) for 6 h and imaged by epi-fluorescence microscopy.

For data set [2], the system named is hepcidin protein in RINm5F cells. Briefly: Immunoblot analysis of hepcidin in stimulated RINm5F cells. The data set is classed as cell-based, rat. How it is done:
(§1) RINM5F cells were grown in RPMI1640 media (PAA, Austria) containing L-glutamine, supplemented with 10% (vol/vol) heat inactivated fetal calf serum, penicillin (100 units/ml) and streptomycin (100 μg/mL). Cells were cultivated at 37° C. in 5% CO2. Cells were incubated with increasing concentrations of FENTA from 1 μM up to 65 μM for 72 hours and with 100 mM glucose (Merck, Darstadt, Germany) for up to 8 hours. After stimulation experiments, total rna or proteins were extracted from RINM5F cells and analyzed by quantitative PCR and immunoblot assays.
(§2) In these experiments, protein extracts were incubated for 7 min at 94° C. in sample buffer with 4% (wt/vol) SDS (Merck, Darmstadt, Germany), 50 mM TRIS-HCl (PH 8.45), 1 mM EDTA, 3.24 mM dithiothreitol (ROTH, Karlsruhe, Germany), 12.5% (wt/vol) glycerol (Merck, Darmstadt, Germany), and 0.002% Bromophenol blue (Merck, Darmstadt, Germany). To detect hepcidin, a 16.5% Tricine-SDS-polyacrylamide gel was used.
Background: Immunoblotting shows a protein as a band on a membrane.

Data set [3] concerns RINm5F cells. Briefly: Neutral red cytotoxicity assay in RINm5F cells. Type of data set: cell-based, rat. As to conditions: FeNTA concentrations used, 3 days after iron stimulation. How it is done:
(A): Hepcidin expression in RINm5F cells after iron (FeNTA) stimulation using quantitative RT-PCR (n=5) (1 μM FeNTA: P<0.01; 3 μM: P<0.001; 10 μM: P<0.002; 65 μM: P<0.05). (B): Cytotoxicity of FeNTA in RINm5F cells measured by neutral red assay 3 days after iron stimulation. […] (C): Immunoblot analysis of iron stimulated RINm5F cells showing hepcidin immunoreactivity at the range of 10 kDa. […] The second immunoreactive band at 20 kDa may reflect a dimeric type of hepcidin.
as §2

Data set [4] has as its system hepcidin expression in RINm5F cells. Briefly: Hepcidin expression in RINm5F cells by quantitative RT-PCR after stimulation. The data set is classed as cell-based, rat. How it is done: as §1
The regulation of hepcidin expression in RINm5F cells was analyzed upon exposure to iron, since iron regulates hepcidin expression in the liver. The regulatory effect of iron on hepcidin gene expression was measured in these cells under various FENTA concentrations using quantitative RT-PCR as described, for example, in Gehrke et al., Blood 102: 371-376 (2003). A 2-step reverse transcriptase-polymerase chain reaction (RT-PCR) was performed using the Lightcycler system and relative quantification software version 1.0 (ROCHE Molecular Biochemicals; Mannheim, Germany). […] In a second step, transcripts of hepcidin were amplified in duplicates with specific sense and antisense primers. all transcripts were detected using SYBR GREEN I according to manufacturer's instructions and were normalized to β-actin as internal control.

Regarding “hepcidin: purified human hepcidin (from urine), bioactive peptide hormone binding ferroportin”, in data set [1] (0.1 μM hepcidin), the “time to Fpn internalization” value is at most 1 h. In addition, the “distribution of Fpn-GFP after addition of hepcidin” value in data set [1] (0.1 to 0.5 μM purified human hepcidin (from urine), 6 h) is “changed the distribution of Fpn-GFP from the cell surface to punctuate intracellular vesicles”. In addition, the “concentration of hepcidin that induced Fpn internalization” value in data set [1] (HEK293-Fpn cells, within 1 h) was at most 0.1 µM.

Consider “Chemically synthesized hepcidin: hepcidin synthesized chemically”, for which the “efficiency in inducing Fpn-GFP internalization compared with hepcidin purified from urine” value in data set [1] (same experiments as with urine hepcidin) was “as efficient in inducing Fpn-GFP internalization as hepcidin purified from urine”.

On to `O=C([O-])CN(CC(=O)[O-])CC(=O)[O-].[Fe+3]` [FeNTA, Iron Nitrilotriacetate], for which the “hepcidin immunoreactivity at 10 kDa compared to control” value is listed as “up-regulation of hepcidin” in data set [2] (3 μM FeNTA) and “down-regulation” in data set [2] (65 μM FeNTA). Also, the “cytotoxicity in neutral red assay” value in data set [3] is reported as “no cytotoxicity exists under the iron concentrations used”; in data set [3] (listed as FENTA) it was “not cytotoxic”. For the same compound, in data set [4] (FeNTA 1 μM up to 10 μM, 72 hours), the hepcidin-mRNA regulation result is “significant up-regulation of hepcidin-mRNA up to three-fold”. Also, in data set [4] (FeNTA 65 μM or higher), the hepcidin expression entry is given as “down-regulated”.
